The values below come from patent publication US10273241B2 (President and Fellows of Harvard College, priority 2013, dated 2019).

By clearance is commonly meant the rate of elimination divided by the concentration. High values mean efficient removal, low ones inefficient removal. In general, Cmax refers to the maximum level reached in the sampled fluid or tissue. Usually bioavailability stands for dose-corrected exposure relative to a reference, in per cent.

Where two headings read alike, the source gives them in different places. Where only a bound is given, the exact number is not on record here.

The subject of one series is MOLM-14. Nature of the series: Cell growth assay, MOLM-14 AML cell line. It counts as cell-based, human. As to conditions: Homo sapiens. The procedure:
(§1) For all other cell lines, compounds were serially diluted in medium and dispensed in triplicate in 96-well plates (0.1% DMSO final for assay) followed by the addition of exponentially growing cells at densities ranging from 5,000 to 30,000 cells/well. Cells were also seeded into 2 additional control wells containing vehicle (0.1% DMSO). […] To determine the estimated cell number in each well, cells that were counted in the control well were diluted 3-fold for an 8-point dilution series, and transferred to 384-well plates in duplicate, 20 μL per well. Cells in all other wells were diluted 4-fold and transferred to 384-well plates in duplicate, 20 μL per well. 20 μL of CellTiter-Glo (Promega) was subsequently added to all wells and luminescence was detected using a SPECTRAmax M3. The control well dilution series was fit to a linear regression and used as a standard for calculating the estimated cell number for each well. For days 7 and 10, total estimated cell number represents the split-adjusted theoretical cell number.

The subject of another series is MV4;11. Nature of the series: Cell growth assay, MV4;11 AML cell line. It counts as cell-based, human. As to conditions: Homo sapiens. The procedure: as §1
A further series concerns SET-2. Nature of the series: Cell growth assay, SET-2 cell line. As to conditions: Homo sapiens, SET-2, 240 h; read-out: SET-2 GI50 day 10. It is filed as cell-based. The procedure:
(§2) For all other cell lines, compounds were serially diluted in medium and dispensed in triplicate in 96-well plates (0.1% DMSO final for assay) followed by the addition of exponentially growing cells at densities ranging from 5,000 to 30,000 cells/well. Cells were also seeded into 2 additional control wells containing vehicle (0.1% DMSO). After 3 days, the number of viable cells in one of the control wells was counted by hemocytometer or MOXI Z (Orflo) and an equal volume of cells for all wells were split-back with fresh vehicle/compounds such that the resulting seeding density for the control well was 5,000-30,000 cells/well, matching the initial seeding density in that well. This procedure was repeated on day 7 and day 10. % growth was calculated as % growth=100×(total estimated cell number in well−day 0 starting cell number)/(total average vehicle estimated cell number−day 0 starting cell number). To determine the estimated cell number in each well, cells that were counted in the control well were diluted 3-fold for an 8-point dilution series, and transferred to 384-well plates in duplicate, 20 μL per well. Cells in all other wells were diluted 4-fold and transferred to 384-well plates in duplicate, 20 μL per well. 20 μL of CellTiter-Glo (Promega) was subsequently added to all wells and luminescence was detected using a SPECTRAmax M3. The control well dilution series was fit to a linear regression and used as a standard for calculating the estimated cell number for each well. For days 7 and 10, total estimated cell number represents the split-adjusted theoretical cell number.

The test system of series [1] is Human Umbilical Vein Endothelial Cells (HUVECs). As to conditions: less potent than cortistatin A; Aoki et al. 2007; cited from earlier work.
The nature of series [2]: Pharmacokinetic study of 14A in male CD-1 mice. It counts as in vivo. As to conditions: CD-1, mouse, blood. The procedure:
For pharmacokinetic studies with (14A), (14A) was formulated in 20% hydroxypropyl-beta-cyclodextrin (HPCD) and male CD-1 mice were given a single dose of 14A at 3 mg/kg i.p. and intravenous (i.v.) and 10 mg/kg oral (p.o.). Prior to dosing, mice were fasted overnight until 4 hours post-dosing. Blood samples were collected at the indicated timepoints and analyzed by HPLC/MS/MS to evaluate the concentration of (14A).

Series [3] concerns Human Umbilical Vein Endothelial Cells (HUVECs). Nature of the series: HUVEC growth inhibition (CellTiter-Blue, 96 h). It is filed as cell-based. As to conditions: 96 hour treatment. The procedure: HUVECs were plated in triplicate in 96-well plates at a density of 1,000 cells/well in 75 μL. After 24 h, compounds were serially diluted in medium and delivered to cells as 4× solutions in 25 μL (0.1% DMSO final for assay). 96 h after compound addition, CellTiter-Blue (Promega) was added to the wells, plates were incubated at 37° C. for 90 min, and fluorescence (555 nm excitation; 580 nm emission) was detected using a SPECTRAmax M3. IC50 was determined by fitting the data to a four-parameter dose-response curve using GraphPad Prism 5.0.

In the next series the test system is K562. Nature of the series: Cell growth assay, K562 cell line. It is filed as cell-based, human. As to conditions: Homo sapiens, K562, 240 h; day 10; lack of activity is taken as evidence of on-target selectivity. The procedure:
as §2

[4] abbreviates: MOLM-14, 240 h, day 10, cells passaged, fresh compound added on days 3 and 7, read-out: MOL M14 G150 day 10.
The mark [5] stands for this setting: MV4-11, 240 h, day 10, cells passaged, fresh compound added on days 3 and 7, read-out: MV 4;11 GI50 day 10.

Take `C[C@]12CC=C3C=C4CC[C@@H](N5CCOCC5)C[C@]45CCC3(O5)[C@@H]1CC[C@@H]2c1ccc2ccncc2c1` [15A, α-morpholine]: the GI50 in the series with MOLM-14 (setting [4]) came to 20 nM; in the series with MV4;11 (setting [5]), 2.5 nM; with SET-2, 8 nM.
The like results for `CN[C@@H]1CCC2=CC3=CC[C@]4(C)C(c5ccc6ccncc6c5)CC[C@H]4C34CC[C@]2(C1)O4` (stereo partly drawn) [24A, α-monomethylamine] were, in that order, 18 nM, 1 nM and 0.5 nM.
Consider cortistatin J, for which the “potency at inhibiting HUVEC proliferation relative to cortistatin A” value in series [1] was 8 fold.
Consider `C[C@]12CC=C3C=C4CC[C@@H](N)CC45CC[C@]3(O5)[C@@H]1CC[C@@H]2c1ccc2ccncc2c1` [62A, α-primaryamine], for which the GI50 worked out at 5 nM in the series on MOLM-14 (setting [4]), 0.4 nM in the series on MV4;11 (setting [5]) and 0.45 nM in the series with SET-2.
`CN(C)[C@@H]1CCC2=CC3=CC[C@]4(C)[C@@H](c5ccc6ccncc6c5)CC[C@H]4C34CC[C@]2(C1)O4` [14A, α-dimethylamine] came in with a clearance in series [2] (3 mg/kg IV) of 29 mL/min/kg. The highest concentration (Cmax) in series [2] (10 mg/kg PO in 20% HPCD, after 2 hours, read-out: Cmax after oral dosing) was found to be 255 ng/mL. Also, the half-life in series [2] (10 mg/kg PO in 20% HPCD, read-out: T1/2 after oral dosing (converted)) was ~5 h. Moreover, the concentration at 24 h in series [2] (10 mg/kg PO, 24 h, read-out: oral C24 trough concentration) amounted to 14.2 ng/mL. For the same molecule, the bioavailability in series [2] (ip, 3 mg/kg, 3 mg/kg IP, read-out: IP bioavailability) was determined as 95%; in series [2] (oral, 10 mg/kg, 10 mg/kg PO vs 3 mg/kg IV, read-out: oral bioavailability), 44%. Also, the Vd in series [2] (iv, 3 mg/kg, 3 mg/kg IV, read-out: Vss) came to 11.7 L/kg.
As to `C[C@]12CC=C3C=C4[C@@H](O)[C@H](O)[C@@H]([N+](C)(C)[O-])CC45CC[C@]3(O5)[C@@H]1CC[C@@H]2c1ccc2ccncc2c1` [cortistatin A N-oxide, Cortistatin A N-oxide], the “inhibition of HUVEC proliferation compared with cortistatin A” value in series [3] is on record as “equipotent”.
As for `C[C@]12CC=C3C=C4CC[C@@H](N5CCCC5)C[C@]45CC[C@]3(O5)[C@@H]1CC[C@@H]2c1ccc2ccncc2c1` [19A, α-pyrrolidine], the GI50 came out at 5 nM with MOLM-14 (setting [4]), 1.5 nM in the series on MV4;11 (setting [5]) and 0.4 nM in the series on SET-2.
On to `C[C@]12CC=C3C=C4CC[C@H](N5CCC5)C[C@]45CCC3(O5)[C@@H]1CC[C@@H]2c1ccc2ccncc2c1` [18B, β-azetidine], for which the GI50 was 13 nM in the series with MOLM-14 (setting [4]); 25 nM with MOLM-14 (MOLM-14, day 7, fresh compound added on day 3, read-out: MOL M14 GI50 day 7); 13 nM in the series with MV4;11 (setting [5]); 20 nM with MV4;11 (MV4-11, day 7, fresh compound added on day 3, read-out: MV4;11 GI50 day 7); > 1000 nM in the series on K562.
